How the values were obtained:
bedstraw = assay: Test B pre/postemergence bedstraw; assay type: in vivo, Galium aparine
Summary of the method: (§1)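 Response is a visual 0-to-10 score relative to untreated plants, where 0 means no effect and 10 means complete control, taken twelve to sixteen days after application. Treatments went onto soil at planting and onto foliage of 1- to 4-leaf plants, using a surfactant-containing non-phytotoxic solvent.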

blackgrass = assay: Test B pre/postemergence blackgrass; assay type: in vivo, Alopecurus myosuroides
Summary of the method: as §1

surinam grass = assay: Test B pre/postemergence surinam grass; assay type: in vivo, Brachiaria decumbens
Summary of the method: as §1

cocklebur = assay: Test B pre/postemergence cocklebur; assay type: in vivo, Xanthium strumarium
Summary of the method: as §1

corn = assay: Test B pre/postemergence corn; assay type: in vivo, Zea mays
Summary of the method: as §1

crabgrass = assay: Test B pre/postemergence crabgrass; assay type: in vivo, Digitaria sanguinalis
Summary of the method: as §1

giant foxtail = assay: Test B pre/postemergence giant foxtail; assay type: in vivo, Setaria faberii
Summary of the method: as §1

pigweed = assay: Test B pre/postemergence pigweed; assay type: in vivo, Amaranthus retroflexus
Summary of the method: as §1

soybean = assay: Test B pre/postemergence soybean; assay type: in vivo, Glycine max
Summary of the method: as §1

sugar beet = assay: Test B pre/postemergence sugar beet; assay type: in vivo, Beta vulgaris; conditions: for Plant response rating, Sugarbeets: Rate 250 g/ha
Summary of the method: as §1

velvetleaf = assay: Test B pre/postemergence velvetleaf; assay type: in vivo, Abutilon theophrasti; conditions: for Plant response rating, Velvetleaf: Rate 250 g/ha
Summary of the method: as §1

wild oat = assay: Test B pre/postemergence wild oat; assay type: in vivo, Avena fatua; conditions: for Plant response rating, Wild oats: Rate 250 g/ha
Summary of the method: as §1

purple nutsedge = assay: Test B pre/postemergence purple nutsedge; assay type: in vivo, Cyperus rotundus
Summary of the method: as §1

rice = assay: Test B flood test rice; assay type: in vivo, Oryza sativa
Summary of the method: (§2)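 Each value is a visual injury score relative to controls, with 10 meaning complete control and 0 no effect. Evaluation took place twelve to sixteen days after the 2-leaf-stage plants were treated and kept in the greenhouse.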

smallflower flatsedge = assay: Test B flood test smallflower flatsedge; assay type: in vivo, Cyperus difformis
Summary of the method: as §2

bamyardgrass = assay: Test B flood test barnyardgrass; assay type: in vivo, Echinochloa crus-galli
Summary of the method: as §2

[1] = Postemergence, Rate 62 g/ha, scale 0 to 10, 0 is no effect, 10 is complete control
[2] = Postemergence, Rate 250 g/ha, scale 0 to 10, 0 no effect, 10 complete control
[3] = Preemergence, Rate 62 g/ha, scale 0 to 10 (0 no effect, 10 complete control)
[4] = Preemergence, Rate 125 g/ha, scale 0 to 10 (0 no effect, 10 complete control)
[5] = Preemergence, Rate 250 g/ha, scale of 0 to 10 where 0 is no effect and 10 is complete control
[6] = Preemergence, Rate 500 g/ha, scale 0 (no effect) to 10 (complete control)
[7] = Rate 125 g/ha, Postemergence, scale 0 to 10, 0 no effect, 10 complete control
[8] = Rate 500 g/ha, Postemergence, scale 0 to 10, 0 no effect, 10 complete control
[9] = Postemergence, Rate 125 g/ha, scale of 0 to 10 where 0 is no effect and 10 is complete control
[10] = Rate 250 g/ha, Postemergence, scale 0 to 10, 0 is no effect, 10 is complete control
[11] = Preemergence, Rate 125 g/ha, 0 is no effect, 10 is complete control
[12] = Preemergence, scale of 0 to 10 where 0 is no effect and 10 is complete control
[13] = Postemergence, scale 0 to 10, 0 is no effect, 10 is complete control
[14] = Postemergence (flood test species), Rate 125 g/ha, scale of 0 to 10 where 0 is no effect and 10 is complete control
[15] = Rate 250 g/ha, Postemergence (flood test), scale 0 to 10, 0 is no effect, 10 is complete control
[16] = Rate 500 g/ha, listed under Postemergence (flood test species), scale 0 to 10, 0 no effect, 10 complete control

Cc1nn(C)c(Cl)c1-n1c(=O)on(C(=O)N(c2ccc(F)cc2F)C(C)C)c1=O [Compound 96] was tested, and the “Bedstraw plant response rating” value (bedstraw; [1]) was 0, the “Bedstraw plant response rating” value (bedstraw; [2]) was 0 and the “Bedstraw plant response rating” value (bedstraw; [3]) was 0. For the same molecule, the “Plant response rating, Bedstraw” value (bedstraw; [4]) was 0, the “Plant response rating, Bedstraw” value (bedstraw; [5]) was 0 and the “Bedstraw plant response rating” value (bedstraw; [6]) was 2. The “Bedstraw plant response rating” value (bedstraw; [7]) was 0, the “Bedstraw plant response rating” value (bedstraw; [8]) was 0 and the “Blackgrass plant response rating” value (blackgrass; [1]) was 0. The “Blackgrass plant response rating” value (blackgrass; [9]) was 0, the “Blackgrass plant response rating” value (blackgrass; [2]) was 0 and the “Blackgrass plant response rating” value (blackgrass; [3]) was 0. The “Plant response rating, Blackgrass” value (blackgrass; [4]) was 3, the “Plant response rating, Blackgrass” value (blackgrass; [5]) was 3 and the “Blackgrass plant response rating” value (blackgrass; [6]) was 8. For the same molecule, the “Blackgrass plant response rating” value (blackgrass; [8]) was 0, the “B. signalgrass plant response rating” value (surinam grass; [1]) was 0 and the “B. signalgrass plant response rating” value (surinam grass; [2]) was 0. The “B. signalgrass plant response rating” value (surinam grass; [3]) was 0, the “Plant response rating, B. signalgrass” value (surinam grass; [4]) was 0 and the “Plant response rating, B. signalgrass” value (surinam grass; [5]) was 1. For the same molecule, the “B. signalgrass plant response rating” value (surinam grass; [6]) was 2, the “B. signalgrass plant response rating” value (surinam grass; [7]) was 0 and the “B. signalgrass plant response rating” value (surinam grass; Rate 500 g/ha, Postemergence, scale of 0 to 10 where 0 is no effect and 10 is complete control) was 0. The “Cocklebur plant response rating” value (cocklebur; [1]) was 0, the “Cocklebur plant response rating” value (cocklebur; [9]) was 0 and the “Cocklebur plant response rating” value (cocklebur; [2]) was 0. The “Cocklebur plant response rating” value (cocklebur; [3]) was 0, the “Plant response rating, Cocklebur” value (cocklebur; [4]) was 0 and the “Plant response rating, Cocklebur” value (cocklebur; [5]) was 0. The “Cocklebur plant response rating” value (cocklebur; [6]) was 0, the “Cocklebur plant response rating” value (cocklebur; [8]) was 2 and the “Corn plant response rating” value (corn; [1]) was 0. The “Corn plant response rating” value (corn; [9]) was 0, the “Corn plant response rating” value (corn; [2]) was 0 and the “Corn plant response rating” value (corn; [3]) was 0. For the same molecule, the “Plant response rating, Corn” value (corn; [4]) was 0, the “Plant response rating, Corn” value (corn; [5]) was 0 and the “Corn plant response rating” value (corn; [6]) was 0. For the same molecule, the “Corn plant response rating” value (corn; [8]) was 0, the “Crabgrass plant response rating” value (crabgrass; [1]) was 1 and the “Crabgrass plant response rating” value (crabgrass; [9]) was 3. For the same molecule, the “Crabgrass plant response rating” value (crabgrass; [2]) was 3, the “Crabgrass plant response rating” value (crabgrass; [3]) was 1 and the “Plant response rating, Crabgrass” value (crabgrass; [4]) was 4. The “Plant response rating, Crabgrass” value (crabgrass; [5]) was 7, the “Crabgrass plant response rating” value (crabgrass; [6]) was 9 and the “Crabgrass plant response rating” value (crabgrass; [8]) was 8. The “Giant foxtail plant response rating” value (giant foxtail; [1]) was 0, the “Giant foxtail plant response rating” value (giant foxtail; [9]) was 0 and the “Giant foxtail plant response rating” value (giant foxtail; [2]) was 0. For the same molecule, the “Giant foxtail plant response rating” value (giant foxtail; [3]) was 2, the “Plant response rating, Giant foxtail” value (giant foxtail; [4]) was 2 and the “Plant response rating, Giant foxtail” value (giant foxtail; [5]) was 3. The “Giant foxtail plant response rating” value (giant foxtail; [6]) was 8, the “Giant foxtail plant response rating” value (giant foxtail; [8]) was 3 and the “Redroot pigweed plant response rating” value (pigweed; [1]) was 0. The “Redroot pigweed plant response rating” value (pigweed; [9]) was 0, the “Plant response rating, Redroot pigweed” value (pigweed; [4]) was 6 and the “Plant response rating, Redroot pigweed” value (pigweed; [5]) was 7. For the same molecule, the “Redroot pigweed plant response rating” value (pigweed; [6]) was 8, the “Plant response rating, Redroot pigweed” value (pigweed; [10]) was 0 and the “Redroot pigweed plant response rating” value (pigweed; [8]) was 0. The “Soybean plant response rating” value (soybean; [1]) was 1, the “Soybean plant response rating” value (soybean; [9]) was 1 and the “Soybean plant response rating” value (soybean; [3]) was 0. For the same molecule, the “Plant response rating, Soybean” value (soybean; [4]) was 0, the “Plant response rating, Soybean” value (soybean; [5]) was 0 and the “Soybean plant response rating” value (soybean; [6]) was 0. The “Plant response rating, Soybean” value (soybean; [10]) was 1, the “Soybean plant response rating” value (soybean; [8]) was 1 and the “Sugarbeets plant response rating” value (sugar beet; [1]) was 0. For the same molecule, the “Sugarbeets plant response rating” value (sugar beet; [9]) was 0, the “Sugarbeets plant response rating” value (sugar beet; [3]) was 0 and the “Sugarbeets plant response rating (0 to 10 scale)” value (sugar beet; [11]) was 0. For the same molecule, the “Plant response rating, Sugarbeets” value (sugar beet; [12]) was 0, the “Sugarbeets plant response rating” value (sugar beet; [6]) was 2 and the “Plant response rating, Sugarbeets” value (sugar beet; [13]) was 0. The “Sugarbeets plant response rating” value (sugar beet; [8]) was 0, the “Velvetleaf plant response rating” value (velvetleaf; [1]) was 0 and the “Velvetleaf plant response rating” value (velvetleaf; [9]) was 0. For the same molecule, the “Velvetleaf plant response rating” value (velvetleaf; [3]) was 0, the “Velvetleaf plant response rating (0 to 10 scale)” value (velvetleaf; [11]) was 0 and the “Plant response rating, Velvetleaf” value (velvetleaf; [12]) was 0. The “Velvetleaf plant response rating” value (velvetleaf; [6]) was 0, the “Plant response rating, Velvetleaf” value (velvetleaf; [13]) was 0 and the “Velvetleaf plant response rating” value (velvetleaf; [8]) was 0. The “Wild oats plant response rating” value (wild oat; [1]) was 0, the “Wild oats plant response rating” value (wild oat; [9]) was 0 and the “Wild oats plant response rating” value (wild oat; [3]) was 0. The “Wild oats plant response rating (0 to 10 scale)” value (wild oat; [11]) was 0, the “Plant response rating, Wild oats” value (wild oat; [12]) was 2 and the “Wild oats plant response rating” value (wild oat; [6]) was 7. The “Plant response rating, Wild oats” value (wild oat; [13]) was 0, the “Wild oats plant response rating” value (wild oat; [8]) was 0 and the “Nutsedge plant response rating” value (purple nutsedge; [1]) was 0. The “Nutsedge plant response rating” value (purple nutsedge; [9]) was 0, the “Nutsedge plant response rating” value (purple nutsedge; [2]) was 0 and the “Nutsedge plant response rating” value (purple nutsedge; [3]) was 0. For the same molecule, the “Plant response rating, Nutsedge” value (purple nutsedge; [4]) was 0, the “Plant response rating, Nutsedge” value (purple nutsedge; [5]) was 0 and the “Nutsedge plant response rating” value (purple nutsedge; [6]) was 0. For the same molecule, the “Nutsedge plant response rating” value (purple nutsedge; [8]) was 0, the “Rice plant response rating” value (rice; [14]) was 0 and the “Rice plant response rating” value (rice; [1]) was 0. The “Plant response rating, Rice” value (rice; [15]) was 0, the “Rice plant response rating” value (rice; [16]) was 2 and the “S. Flatsedge plant response rating” value (smallflower flatsedge; [14]) was 0. For the same molecule, the “S. Flatsedge plant response rating” value (smallflower flatsedge; [1]) was 0, the “Plant response rating, S. Flatsedge” value (smallflower flatsedge; [15]) was 0 and the “S. Flatsedge plant response rating” value (smallflower flatsedge; [16]) was 3. The “Barnyardgrass plant response rating” value (bamyardgrass; [1]) was 0, the “Barnyardgrass plant response rating” value (bamyardgrass; Rate 125 g/ha, Postemergence section (flood test species), scale 0 to 10, 0 no effect, 10 complete control) was 0 and the “Barnyardgrass plant response rating” value (bamyardgrass; [16]) was 0. The “Barnyardgrass plant response rating” value (bamyardgrass; flood test, listed under Postemergence, Rate 250 g/ha, scale 0 to 10, 0 no effect, 10 complete control) was 0.
